In publication PMC7587356, “High-Throughput Screening for Inhibitors of the SARS-CoV-2 Protease Using a FRET-Biosensor” (Molecules, 2020):
Structures can show the parent of a compound that is named as a salt. Where two headings read alike, the source gives them in different places.

Molecular target: SARS-CoV-2 3CLpro (Severe acute respiratory syndrome coronavirus 2, UniProt P0DTD1)
Assay: biochemical
Assay type: biochemical
Parameters: Replicate_1 / Replicate_2 / mean / mean (LOPAC_screen_w_protease): unit not given here
Conditions: for inhibition at 5 µM: 4 h; for mean (LOPAC screen with protease) / Replicate_1 (LOPAC screen with protease) / Replicate_2 (LOPAC screen with protease): primary screen at 5 µM
[1] = sheet LOPAC_screen_w_protease, LOPAC1280 primary screen with protease, 5 µM compound, mean of the two replicates, read-out: mean
[2] = sheet LOPAC_screen_w_protease, LOPAC1280 primary screen with protease, 5 µM compound, replicate 1, read-out: Replicate_1
[3] = sheet LOPAC_screen_w_protease, LOPAC1280 primary screen with protease, 5 µM compound, replicate 2, read-out: Replicate_2
[4] = sheet LOPAC_screen_w_protease, primary screen of LOPAC1280 at 5 µM with protease, mean of the two replicates
[5] = sheet LOPAC_screen_w_protease, primary screen of LOPAC1280 at 5 µM with protease, replicate 1
[6] = sheet LOPAC_screen_w_protease, primary screen of LOPAC1280 at 5 µM with protease, replicate 2
[7] = sheet LOPAC_screen_w_protease, mean of two replicates
[8] = sheet LOPAC_screen_w_protease, replicate 1
[9] = sheet LOPAC_screen_w_protease, replicate 2
[10] = sheet LOPAC_screen_w_protease, LOPAC1280 primary screen at 5 µM, with protease, mean of the two replicates
[11] = sheet LOPAC_screen_w_protease, LOPAC1280 primary screen at 5 µM, with protease, replicate 1
[12] = sheet LOPAC_screen_w_protease, LOPAC1280 primary screen at 5 µM, with protease, replicate 2
[13] = sheet LOPAC_screen_w_protease, LOPAC1280 at 5 µM, mean of two replicates
[14] = sheet LOPAC_screen_w_protease, LOPAC1280 at 5 µM, replicate 1
[15] = sheet LOPAC_screen_w_protease, LOPAC1280 at 5 µM, replicate 2
[16] = LOPAC1280 primary screen with protease, 5 µM compound, mean of the two replicates
[17] = LOPAC1280 primary screen with protease, 5 µM compound, replicate 1
[18] = LOPAC1280 primary screen with protease, 5 µM compound, replicate 2
[19] = sheet LOPAC_screen_w_protease, primary screen with protease, compound at 5 µM, mean of two replicates
[20] = sheet LOPAC_screen_w_protease, primary screen with protease, compound at 5 µM, replicate 1
[21] = sheet LOPAC_screen_w_protease, primary screen with protease, compound at 5 µM, replicate 2
[22] = sheet LOPAC_screen_w_protease, primary screen with protease, 5 µM, mean of two replicates, read-out: mean
[23] = sheet LOPAC_screen_w_protease, primary screen with protease, 5 µM, replicate 1, read-out: Replicate_1
[24] = sheet LOPAC_screen_w_protease, primary screen with protease, 5 µM, replicate 2, read-out: Replicate_2
[25] = LOPAC1280 primary screen with protease, 5 µM compound, mean of two replicates

Compound: CN(C)[C@@H]1C(O)=C(C(N)=O)C(=O)[C@@]2(O)C(O)=C3C(=O)c4c(O)ccc(Cl)c4[C@@H](O)[C@H]3C[C@@H]12 [Demeclocycline hydrochloride]
- inhibition at 5 µM [1]: 4.52%
- inhibition at 5 µM [2]: 7.2%
- inhibition at 5 µM [3]: 1.84%

Compound: CC(C)CC(NC(=O)C1OC1C(=O)O)C(=O)NCCCCNC(=N)N (centres unmarked) [E-64]
- mean (sheet LOPAC_screen_w_protease, primary screen with protease, 5 µM, mean of two replicates): 0.2813
- Replicate_1 (sheet LOPAC_screen_w_protease, primary screen with protease, 5 µM, replicate 1): 1.4489
- Replicate_2 (sheet LOPAC_screen_w_protease, primary screen with protease, 5 µM, replicate 2): -0.8864

Compound: NC(CCCCCP(=O)(O)O)C(=O)O (racemic) [(±)-2-Amino-7-phosphonoheptanoic acid]
- mean [4]: 3.542
- Replicate_1 [5]: 3.653
- Replicate_2 [6]: 3.43

Compound: O=c1c(-c2ccc(O)cc2)coc2cc(O)cc(O)c12 [Genistein]
- inhibition at 5 µM (read-out: Replicate_1 (LOPAC_screen_w_protease)): 2.15%
- inhibition at 5 µM (read-out: Replicate_2 (LOPAC_screen_w_protease)): 0.656%

Compound: CN(C)S(=O)(=O)c1ccc2c(c1)/C(=C/c1cc3c([nH]1)CCCC3)C(=O)N2 [SU 6656]
- inhibition at 5 µM [1]: 4.85%
- inhibition at 5 µM [2]: 3.58%
- inhibition at 5 µM [3]: 6.11%

Compound: CC(=O)NCCc1ccc(O)c(O)c1.O [N-Acetyldopamine monohydrate]
- mean (LOPAC screen with protease) [7]: 81.0563
- Replicate_1 (LOPAC screen with protease) [8]: 83.9163
- Replicate_2 (LOPAC screen with protease) [9]: 78.1962

Compound: CC(=O)[C@H]1CC[C@H]2[C@@H]3CC[C@H]4C[C@H](O)CC[C@]4(C)[C@H]3CC[C@]12C [5alpha-Pregnan-3alpha-ol-20-one]
- mean [10]: 0.7105
- Replicate_1 [11]: 1.221
- Replicate_2 [12]: 0.1995

Compound: CCn1cnc2c(Nc3cccc(Cl)c3)nc(N[C@@H]3CCCC[C@@H]3N)nc21.Cl [CGP-74514A hydrochloride]
- mean [10]: 0.7839
- Replicate_1 [11]: 2.043
- Replicate_2 [12]: -0.4753

Compound: c1ccc2cc(-c3ncc[nH]3)ccc2c1 [Benazoline oxalate]
- inhibition at 5 µM (sheet LOPAC_screen_w_protease, primary screen of LOPAC1280 at 5 µM with protease, mean of the two replicates, read-out: mean): 3.39%
- inhibition at 5 µM (sheet LOPAC_screen_w_protease, primary screen of LOPAC1280 at 5 µM with protease, replicate 1, read-out: Replicate_1): 1.95%
- inhibition at 5 µM (sheet LOPAC_screen_w_protease, primary screen of LOPAC1280 at 5 µM with protease, replicate 2, read-out: Replicate_2): 4.83%

Compound: (+)-Cyclazocine
- mean [13]: 1.031
- Replicate_1 [14]: 2.203
- Replicate_2 [15]: -0.1419

Compound: O=C1C=CC(=O)C=C1 [p-Benzoquinone]
- mean (LOPAC_screen_w_protease) [16]: 2.118
- Replicate_1 (LOPAC_screen_w_protease) [17]: 1.8862
- Replicate_2 (LOPAC_screen_w_protease) [18]: 2.35

Compound: CCNC(=O)[C@H]1O[C@@H](n2cnc3c(NCc4ccccc4)ncnc32)[C@H](O)[C@@H]1O [N6-Benzyl-5'-N-ethylcarboxamidoadenosine]
- mean [13]: 1.239
- Replicate_1 [14]: -0.1675
- Replicate_2 [15]: 2.645

Compound: O=c1onc2cnc3ccccc3n12 [ODQ]
- mean [19]: 2.809
- Replicate_1 [20]: 2.693
- Replicate_2 [21]: 2.926

Compound: CN(C)C(=O)N=NC(=O)N(C)C [N,N,N',N'-Tetramethylazodicarboxamide]
- mean (LOPAC screen with protease) [7]: 22.0405
- Replicate_1 (LOPAC screen with protease) [8]: 23.2519
- Replicate_2 (LOPAC screen with protease) [9]: 20.8292

Compound: CN(C)C(=O)Oc1ccc[n+](C)c1 [Pyridostigmine bromide]
- inhibition at 5 µM [22]: 0.333%
- inhibition at 5 µM [23]: 1.4%
- inhibition at 5 µM [24]: -0.737%

Compound: COc1cccc(NC(=O)/C=C/c2ccc(Cl)cc2)c1 [SB-366791]
- mean (sheet LOPAC_screen_w_protease, primary screen with protease, mean of two replicates): 2.336
- Replicate_1 (sheet LOPAC_screen_w_protease, primary screen with protease, replicate 1): 3.003
- Replicate_2 (sheet LOPAC_screen_w_protease, primary screen with protease, replicate 2): 1.669

Compound: O=C(O)c1ccccc1Nc1ccccc1 [N-Phenylanthranilic acid]
- inhibition at 5 µM [22]: 0.157%
- inhibition at 5 µM [23]: 0.635%
- inhibition at 5 µM [24]: -0.322%

Compound: C[C@](N)(CCP(=O)(O)O)C(=O)O.Cl [(S)-MAP4 hydrochloride]
- mean [4]: 4.027
- Replicate_1 [5]: 4.444
- Replicate_2 [6]: 3.611

Compound: CC1=C(C(=O)O)N2C(=O)[C@@H](NC(=O)[C@H](N)c3ccccc3)[C@H]2SC1.O [Cephalexin hydrate]
- mean (LOPAC_screen_w_protease) [25]: 1.619
- Replicate_1 (LOPAC_screen_w_protease) [17]: 2.163
- Replicate_2 (LOPAC_screen_w_protease) [18]: 1.074

Compound: O=C(O)C1=CC(=C(c2ccc(O)c(C(=O)O)c2)c2ccc(O)c(C(=O)O)c2)C=CC1=O [Aurintricarboxylic acid, reference compound]
- inhibition at 5 µM (read-out: Replicate_1 (LOPAC screen with protease)): 31.5%
- inhibition at 5 µM (read-out: Replicate_2 (LOPAC screen with protease)): 31.9%
- inhibition at 5 µM (read-out: mean (LOPAC screen with protease)): 31.7%

Compound: S=C([S-])OC1CC2CC1C1CCCC21.[K+] [D-609 potassium]
- mean (sheet LOPAC_screen_w_protease, LOPAC1280 primary screen at 5 µM, with protease, mean of two replicates): -1.918
- Replicate_1 [11]: -2.8235
- Replicate_2 [12]: -1.0122

Compound: CC(C)(Oc1ccc(C2CC2(Cl)Cl)cc1)C(=O)O (centres unmarked) [Ciprofibrate]
- inhibition at 5 µM (sheet LOPAC_screen_w_protease, primary screen with protease, mean of two replicates, read-out: mean): 2.4%
- inhibition at 5 µM (sheet LOPAC_screen_w_protease, primary screen with protease, replicate 1, read-out: Replicate_1): 2.2%
- inhibition at 5 µM (sheet LOPAC_screen_w_protease, primary screen with protease, replicate 2, read-out: Replicate_2): 2.6%

Compound: Cc1ccc(N(CC2=NCCN2)c2cccc(O)c2)cc1 [Phentolamine mesylate]
- inhibition at 5 µM [22]: -0.0499%
- inhibition at 5 µM [23]: -0.162%
- inhibition at 5 µM [24]: 0.062%

Compound: CC[C@@H]1C(=O)OC[C@@H]1Cc1cncn1C.Cl [(+)-Pilocarpine hydrochloride]
- mean [10]: 0.6668
- Replicate_1 [11]: 2.011
- Replicate_2 [12]: -0.6778

Compound: Picrotoxin
- mean (sheet LOPAC_screen_w_protease, LOPAC1280 primary screen with protease, 5 µM compound, mean of the two replicates): 4.15
- Replicate_1 (sheet LOPAC_screen_w_protease, LOPAC1280 primary screen with protease, 5 µM compound, replicate 1): 3.321
- Replicate_2 (sheet LOPAC_screen_w_protease, LOPAC1280 primary screen with protease, 5 µM compound, replicate 2): 4.978

Compound: CN(C)CCCCSC(=N)N.Cl.Cl [SKF 91488 dihydrochloride]
- mean (LOPAC screen with protease) [7]: 12.1431
- Replicate_1 (LOPAC screen with protease) [8]: 13.4504
- Replicate_2 (LOPAC screen with protease) [9]: 10.8358

Compound: Nc1nc(Cl)nc2c1ncn2[C@@H]1O[C@H](COP(=O)(O)OP(=O)(O)OP(=O)(O)O)C(O)C1O (stereo in doubt)
- mean (LOPAC_screen_w_protease) [25]: 1.575
- Replicate_1 (LOPAC_screen_w_protease) [17]: 3.171
- Replicate_2 (LOPAC_screen_w_protease) [18]: -0.0216

Compound: CCCCCCCCCCCCCCCC(=O)OC(CC(=O)O)C[N+](C)(C)C.[Cl-] (racemic) [Palmitoyl-DL-Carnitine chloride]
- mean [19]: 2.684
- Replicate_1 [20]: 2.378
- Replicate_2 [21]: 2.9894

Compound: COc1cccc(OC)c1OCCNCC1COc2ccccc2O1.Cl (centres unmarked) [WB-4101 hydrochloride]
- mean (LOPAC_screen_w_protease) [25]: 1.343
- Replicate_1 (LOPAC_screen_w_protease) [17]: 1.824
- Replicate_2 (LOPAC_screen_w_protease) [18]: 0.8625

Compound: NCC(=O)NCCC(c1ccccc1)c1ccccc1 [N-(3,3-Diphenylpropyl)glycinamide]
- mean (LOPAC_screen_w_protease) [25]: 1.396
- Replicate_1 (LOPAC_screen_w_protease) [17]: 1.194
- Replicate_2 (LOPAC_screen_w_protease) [18]: 1.598

Compound: NCCCCCC(=O)O [6-Aminohexanoic acid]
- inhibition at 5 µM (LOPAC1280 primary screen with protease, 5 µM compound, replicate 1, read-out: Replicate_1 (LOPAC_screen_w_protease)): 2.45%
- inhibition at 5 µM (LOPAC1280 primary screen with protease, 5 µM compound, replicate 2, read-out: Replicate_2 (LOPAC_screen_w_protease)): 1.78%
- mean (LOPAC_screen_w_protease) [16]: 2.116

Compound: Cc1cn([C@H]2C=C[C@@H](CO)O2)c(=O)[nH]c1=O [2',3'-didehydro-3'-deoxythymidine]
- mean (LOPAC_screen_w_protease) [16]: 1.906
- Replicate_1 (LOPAC_screen_w_protease) [17]: 2.073
- Replicate_2 (LOPAC_screen_w_protease) [18]: 1.738

Compound: O=C(O)CP(=O)(O)O [Phosphonoacetic acid]
- inhibition at 5 µM (sheet LOPAC_screen_w_protease, LOPAC1280 primary screen at 5 µM, with protease, mean of the two replicates, read-out: mean): 0.854%
- inhibition at 5 µM (sheet LOPAC_screen_w_protease, LOPAC1280 primary screen at 5 µM, with protease, replicate 1, read-out: Replicate_1): 0.755%
- inhibition at 5 µM (sheet LOPAC_screen_w_protease, LOPAC1280 primary screen at 5 µM, with protease, replicate 2, read-out: Replicate_2): 0.954%

Compound: CN1CCCC1c1cccnc1.Cc1ccc(C(=O)OC(C(=O)O)C(OC(=O)c2ccc(C)cc2)C(=O)O)cc1 (stereo not drawn) [(+)-Nicotine (+)-di-p-toluoyl tartrate]
- Replicate_1 (LOPAC_screen_w_protease): 1.288
- Replicate_2 (LOPAC_screen_w_protease): 2.109
- mean (LOPAC_screen_w_protease): 1.698
